Laboratory results published in ChEMBL document CHEMBL1128265, “Three-dimensional quantitative structure-activity relationship (QSAR) of HIV integrase inhibitors: a comparative molecular field analysis (CoMFA) study” (J Med Chem, 1995).

How the values were obtained:
[1] = molecular target: T1, Human immunodeficiency virus type 1 integrase (Human immunodeficiency virus 1, UniProt Q7ZJM1)
[2] = molecular target: T1, Human immunodeficiency virus type 1 integrase; remark: listed apart in the source

T1 sequence (Q7ZJM1 whole entry): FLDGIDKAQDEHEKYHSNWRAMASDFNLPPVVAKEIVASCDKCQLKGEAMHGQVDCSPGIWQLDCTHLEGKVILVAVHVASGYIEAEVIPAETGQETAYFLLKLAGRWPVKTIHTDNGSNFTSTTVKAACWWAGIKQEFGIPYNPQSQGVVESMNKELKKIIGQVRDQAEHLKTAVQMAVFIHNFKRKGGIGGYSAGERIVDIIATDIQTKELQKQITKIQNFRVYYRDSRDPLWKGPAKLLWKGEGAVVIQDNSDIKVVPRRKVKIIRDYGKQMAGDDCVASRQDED

Row | Structure (SMILES) | IC50 [1] | IC50 [2]
1 | O=c1c(O)c(-c2ccc(O)cc2O)oc2cc(O)cc(O)c12 [MORIN] | 76.5 µM | 31.7 µM
2 | O=c1c(O)c(-c2ccc(O)c(O)c2)oc2cc(O)c(O)c(O)c12 [QUERCETAGETIN] | 0.8 µM | 0.1 µM
3 | O=c1cc(-c2ccc(O)c(O)c2)oc2cc(O)cc(O)c12 [LUTEOLIN] | 32.9 µM | 25 µM
4 | O=c1c(OC2COC(O)C(O)C2O)c(-c2ccc(O)c(O)c2)oc2cc(O)cc(O)c12 (centres undefined) | 66.3 µM | 25.1 µM
5 | O=c1c(O)c(-c2cc(O)c(O)c(O)c2)oc2cc(O)ccc12 [ROBINETIN] | 5.9 µM | 1.6 µM
6 | O=c1c(O)c(-c2ccc(O)c(O)c2)oc2c(O[C@@H]3O[C@@H](O)[C@@H](O)[C@H](O)[C@H]3O)c(O)cc(O)c12 | 69.7 µM | 22.5 µM
7 | CC1OC(O)C(O)C(O)C1Oc1c(-c2ccc(O)c(O)c2)oc2cc(O)cc(O)c2c1=O (centres undefined) | 60 µM | 38.5 µM
8 | C[C@@H]1O[C@@H](O)[C@H](O)[C@H](O)[C@H]1Oc1c(-c2cc(O)c(O)c(O)c2)oc2cc(O)cc(O)c2c1=O | 39.6 µM | 10.3 µM
9 | COc1cc(O)c2c(=O)c(O)c(-c3ccc(O)c(O)c3)oc2c1 [RHAMNETIN] | 61.6 µM | 28.7 µM
10 | O=c1c(O)c(-c2ccc(O)cc2)oc2cc(O)cc(O)c12 [KAEMPFEROL] | 97.8 µM | 64.7 µM
11 | COc1c(O)cc2oc(-c3ccc(O)c(O)c3)cc(=O)c2c1O [EUPAFOLIN] | 94.3 µM | 39.1 µM
12 | O=c1c(O)c(-c2ccc(O)c(O)c2)oc2cc(O)ccc12 [FISETIN] | 28.4 µM | 8.5 µM
